{"source": "patent US8987526B2", "about": "“Partially halogenated, hydroxylated fullerene and allergen adsorbent using the same” (Osaka University, priority 2010, dated 2015)", "molecular_target": "T1, cedar pollen allergen (Cry j1) (Cryptomeria japonica, UniProt P18632)", "T1 sequence (P18632 22-374)": "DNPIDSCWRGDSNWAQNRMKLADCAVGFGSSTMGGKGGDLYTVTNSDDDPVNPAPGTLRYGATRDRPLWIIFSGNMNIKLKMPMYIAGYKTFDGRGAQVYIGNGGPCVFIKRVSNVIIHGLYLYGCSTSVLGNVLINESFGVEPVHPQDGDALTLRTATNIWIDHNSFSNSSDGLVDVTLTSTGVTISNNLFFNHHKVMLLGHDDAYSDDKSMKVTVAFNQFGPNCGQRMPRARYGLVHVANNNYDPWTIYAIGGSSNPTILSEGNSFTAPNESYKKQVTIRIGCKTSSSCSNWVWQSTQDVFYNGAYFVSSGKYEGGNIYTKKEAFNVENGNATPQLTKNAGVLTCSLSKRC", "assay": "Function test of the sample to cedar pollen allergen (Cry j1): allergen adsorption, supernatant measured by sandwich ELISA", "type": "binding", "procedure": "A 1% (by weight/volume) sample solution was prepared from each of the compounds synthesized in Examples 1 to 5, an allergen (Cry j1) dissolved into a phosphate buffer solution was added into the sample solution so as to give 100 ng/mL of the concentration thereof, and then, they were mixed by using a vortex; thereafter, reaction was carried out with shaking the mixture at 4° C. The solution was recovered at the respective predetermined intervals ([…]); and a supernatant thereof after centrifugal separation was analyzed as to the allergen concentration (A) by using a sandwich ELISA method (Enzyme-Linked Immunosorbent Assay). […] Reduction rate (%)=(B−A)/B×100\nSpecific procedure of the sandwich ELISA method will now be described. Anti-Cry j1 antibody is immobilized in each well of a microplate; and after cleaning it, post coating thereof is conducted. After further cleaning, a sample solution or a standard allergen solution is added thereinto to carry out a primary reaction. After cleaning thereof, an anti-Cry j1 biotin-labeled antibody is added thereinto to carry out a secondary reaction. After further cleaning thereof, an enzyme reagent streptavidin HRP is added thereinto; and after cleaning thereof, an o-phenylenedimaine substrate is added thereinto to carry out a chromogenic reaction. After termination of the reaction by adding dilute sulfuric acid, absorbance at the wavelength of 490 nm is measured by using a microplate reader. From a calibration curve predetermined by using the standard allergen solution, allergen concentration in each sample solution is obtained.", "key": {"[1]": {"conditions": "1% (w/v) sample solution, 100 ng/mL Cry j1, 4° C., at 5 minutes"}}, "data": [{"substance": "C60(OH)44.8H2O [reference compound]", "values": [{"measurement": "allergen reduction rate", "setting": "conditions similar to Test Example 1, after 60 minutes", "result": 6.2, "unit": "%"}]}, {"substance": "C60Cl5 (OH)15.5H2O [Example 4]", "values": [{"measurement": "allergen reduction rate", "setting": "[1]", "result": 90, "unit": "%"}]}, {"substance": "C60Cl15(OH)15.9H2O [Example 3]", "values": [{"measurement": "allergen reduction rate", "setting": "[1]", "result": 90, "unit": "%"}]}]}
